Measurements: ChEMBL document CHEMBL1127872, “Discovery and development of aryl-fused imidazole-based angiotensin II antagonists” (Bioorg Med Chem Lett, 1994)

Legend:
[1] = species on record: Oryctolagus cuniculus; assay: Potency of the Angiotensin II-induced contraction of rabbit aortic strips; assay type: functional, Aorta; settings: for Kb: Oryctolagus cuniculus, Aorta, read-out: pA2 (converted)
[2] = target: Angiotensin II receptor (Rattus norvegicus) (UniProt P29089+P25095+P35351); assay: In vivo antagonism of Angiotensin II induced dose-pressor response in male rats.; assay type: functional, organism-based
[3] = target: T1, Type-1 angiotensin II receptor (Bos taurus, UniProt P25104); assay: Inhibition of [125I][Ile5]-AII binding to bovine adrenal cortex membrane Angiotensin II receptor type 1; assay type: tissue-based
T1 sequence (P25104 whole entry): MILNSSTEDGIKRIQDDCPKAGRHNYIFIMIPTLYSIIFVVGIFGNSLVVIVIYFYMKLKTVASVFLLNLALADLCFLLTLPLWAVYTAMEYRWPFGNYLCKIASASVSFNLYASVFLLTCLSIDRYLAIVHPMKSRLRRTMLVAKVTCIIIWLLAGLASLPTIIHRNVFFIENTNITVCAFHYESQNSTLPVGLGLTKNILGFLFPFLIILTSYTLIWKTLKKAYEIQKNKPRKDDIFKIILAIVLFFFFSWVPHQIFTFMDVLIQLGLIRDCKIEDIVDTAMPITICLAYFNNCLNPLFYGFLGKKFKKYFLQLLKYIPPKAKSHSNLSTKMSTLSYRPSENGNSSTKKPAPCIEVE

Row | SMILES | Kb [1] [nM] | ED2 [2] [mg/kg] | pA2 [1] | IC50 [3] [nM]
1 | CCCCc1nc2cccnc2n1Cc1cc(Cl)c(O)c(Cl)c1 | 63.1 | 1.9 |  | 
2 | CCCCc1nc2c(C)ccnc2n1Cc1cc(Cl)c(O)c(Cl)c1 | 10 | 0.55 |  | 
3 | CCCc1nc2c(C)ccnc2n1Cc1ccc(-c2ccccc2C(=O)O)cc1 | 3.16 | 0.16 | 8.5 | 
4 | CCCCc1nc2ccccc2n1Cc1ccc(I)c(O)c1I |  |  |  | 33000
5 | Cc1ccnc2c1nc(C)n2Cc1ccc(-c2ccccc2C(=O)O)cc1 | 50.1 | 1.3 |  | 
6 | CCCc1nc2c(C)ccnc2n1Cc1cc(Cl)c(O)c(Cl)c1 | 1.26 | 0.15 |  | 
7 | CCCCc1nc2ccccc2n1Cc1cc(Cl)c(O)c(Cl)c1 | 63.1 | 6.5 |  | 3200
8 | CCCCc1nc2ccccc2n1CCc1cc(I)c(O)c(I)c1 |  |  |  | 81000
9 | CCCCc1nc2ccccc2n1Cc1ccc(O)cc1 |  |  |  | 8500
10 | CCCCc1nc2c(C)cccc2n1Cc1cc(Cl)c(O)c(Cl)c1 | 20 | 1.3 |  | 
11 | Cc1ccnc2c1nc(C1CC1)n2Cc1cc(Cl)c(O)c(Cl)c1 | 2 | 0.079 |  | 
12 | C/C=C/c1nc2c(C)ccnc2n1Cc1ccc(-c2ccccc2C(=O)O)cc1 | 5.01 | 0.35 |  | 
13 | CCCCc1nc2ccccc2n1Cc1cc(C)c(O)c(C)c1 |  |  |  | 4700
14 | CCCCc1nc2ccccc2n1Cc1cc(C)c(O)c([N+](=O)[O-])c1 |  |  |  | 2200
15 | Cc1ccnc2c1nc(C(C)C)n2Cc1ccc(-c2ccccc2C(=O)O)cc1 | 31.6 | 0.84 |  | 
16 | CCCCc1nc(Cl)c(CO)n1Cc1ccc(-c2ccccc2-c2nnn[nH]2)cc1 [LOSARTAN] | 2.51 | 0.28 |  | 
17 | CCCc1nc2c(Cl)ccnc2n1Cc1ccc(-c2ccccc2C(=O)O)cc1 | 7.94 | 0.66 |  | 
18 | O=C(O)c1ccccc1-c1ccc(Cn2c(C3CC3)nc3c(C(=O)O)ccnc32)cc1 | 25.1 |  |  | 
19 | CCCCc1nc2ccccc2n1Cc1ccc(O)c(C)c1 |  |  |  | 20000
20 | Oc1c(Cl)cc(Cn2c(C3CC3)nc3cccnc32)cc1Cl | 20 | 0.48 |  | 

Row | SMILES | Kb [1] [nM] | ED2 [2] [mg/kg] | pA2 [1] | IC50 [3] [nM]
21 | CSc1nc2c(C)ccnc2n1Cc1ccc(-c2ccccc2C(=O)O)cc1 | 10 | 0.97 |  | 
22 | Cc1ccnc2c1nc(CCCO)n2Cc1ccc(-c2ccccc2C(=O)O)cc1 | 501 |  |  | 
23 | CCCCc1nc2ccccc2n1Cc1cc(I)c(O)c(I)c1 |  |  |  | 1500
24 | CCCCc1nc2c(C)ccnc2n1Cc1ccc(-c2ccccc2C(=O)O)cc1 | 7.94 | 0.45 |  | 
25 | CCCCc1nc2ccccc2n1Cc1cc(C)c(O)c(I)c1 |  |  |  | 2200
26 | CCc1nc2c(C)ccnc2n1Cc1ccc(-c2ccccc2C(=O)O)cc1 | 1.26 | 0.29 |  | 
27 | CCCCc1nc2ccccc2n1Cc1cc([N+](=O)[O-])c(O)c([N+](=O)[O-])c1 |  |  |  | 1600
28 | CCCc1nc2cccnc2n1Cc1cc(Cl)c(O)c(Cl)c1 | 31.6 | 0.65 |  | 
29 | Cc1ccnc2c1nc(C1CC1)n2Cc1ccc(-c2ccccc2C(=O)O)cc1 | 2 | 0.075 |  | 
30 | CCCCc1nc2ncccc2n1Cc1cc(Cl)c(O)c(Cl)c1 | 398 |  |  | 
31 | CCCc1nc2ncccc2n1Cc1cc(Cl)c(O)c(Cl)c1 | 794 |  |  | 
32 | COCc1nc2c(C)ccnc2n1Cc1ccc(-c2ccccc2C(=O)O)cc1 | 79.4 | 0.65 |  | 
33 | CCSc1nc2c(C)ccnc2n1Cc1ccc(-c2ccccc2C(=O)O)cc1 | 5.01 | 0.41 |  | 
34 | CCCCc1nc2ccccc2n1Cc1cc(C(C)(C)C)c(O)c(C(C)(C)C)c1 |  |  |  | > 100000
35 | O=C(O)c1ccccc1-c1ccc(Cn2c(C3CC3)nc3c(CO)ccnc32)cc1 | 10 |  |  | 
36 | CCCCc1nc2ccccc2n1Cc1cc(Br)c(O)c(Br)c1 |  |  |  | 2500
37 | Cc1ccnc2c1nc(C1CCC1)n2Cc1ccc(-c2ccccc2C(=O)O)cc1 | 5.01 | 0.25 |  | 
38 | CCCc1nc2cccnc2n1Cc1ccc(-c2ccccc2C(=O)O)cc1 | 39.8 |  |  | 
39 | Oc1c(Cl)cc(Cn2c(C3CC3)nc3ncccc32)cc1Cl | 631 |  |  | 
